Reference: PubChem BioAssay (NCI)
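Protocol summary: plate cells (96-well), add compound at 5 concentrations, incubate 48 h, interpolate endpoints linearly. TGI: concentration producing complete growth inhibition.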

Key:
Assay in all cases: growth of human tumour cells (NCI), 48 h
[1] = system: OVCAR-5 ovarian
[2] = system: HT29 colon
[3] = system: HOP-62 NSCLC
[4] = system: SK-MEL-2 melanoma
[5] = system: NCI-H522 lung
[6] = system: K-562 leukemia
[7] = system: DU-145 prostate
[8] = system: NCI-H226 lung
[9] = system: A549 NSCLC
[10] = system: SF-295 CNS
[11] = system: MDA-MB-435
[12] = system: UACC-62 melanoma
[13] = system: M14 melanoma
[14] = system: SR leukemia
[15] = system: HCT-116 colon
[16] = system: UACC-257 melanoma
[17] = system: TK-10 renal
[18] = system: HL-60(TB) leukemia
[19] = system: CCRF-CEM leukemia
[20] = system: ACHN renal
[21] = system: MDA-N
[22] = system: 786-0 renal
[23] = system: CAKI-1 renal
[24] = system: PC-3 prostate
[25] = system: NCI/ADR-RES ovarian
[26] = system: MALME-3M melanoma
[27] = system: SK-MEL-28 melanoma
[28] = system: SNB-75 CNS
[29] = system: EKVX NSCLC
[30] = system: RXF 393 renal
[31] = system: SW-620 colon
[32] = system: NCI-H23 lung
[33] = system: SNB-19 CNS
[34] = system: U251 CNS
[35] = system: RPMI-8226 leukemia
[36] = system: HCT-15 colon
[37] = system: BT-549 breast
[38] = system: T-47D breast
[39] = system: SK-MEL-5 melanoma
[40] = system: OVCAR-4 ovarian
[41] = system: UO-31 renal
[42] = system: OVCAR-3 ovarian
[43] = system: MOLT-4 leukemia
[44] = system: KM12 colon
[45] = system: MDA-MB-231 breast
[46] = system: SN12C renal
[47] = system: NCI-H460 lung
[48] = system: HS 578T breast
[49] = system: IGROV1 ovarian
[50] = system: COLO 205 colon
[51] = system: A498 renal
[52] = system: HCC-2998 colon
[53] = system: OVCAR-8 ovarian
[54] = system: LOX IMVI melanoma
[55] = system: SF-268 CNS
[56] = system: SK-OV-3 ovarian

`N#CC(N=Nc1ccccc1C(=O)O)C(N)=O` (stereo unspecified) was tested. Which TGI [1] did it give?
Its TGI is greater than 100 µM.

What about the TGI [2] of the same compound?
The TGI was greater than 100 µM.

What about the TGI [3] of the same compound?
The TGI was greater than 100 µM.

And the TGI [4]?
The TGI was greater than 100 µM.

And the TGI [5]?
Its TGI is greater than 100 µM.

And the TGI [6]?
The TGI was greater than 100 µM.

And the TGI [7]?
Its TGI is greater than 100 µM.

And the TGI [8]?
The TGI was greater than 100 µM.

And the TGI [9]?
The TGI was greater than 100 µM.

And the TGI [10]?
Its TGI is greater than 100 µM.

And the TGI [11]?
Its TGI is greater than 100 µM.

And the TGI [12]?
Its TGI is greater than 100 µM.

And the TGI [13]?
The TGI was greater than 100 µM.

And the TGI [14]?
The TGI was greater than 100 µM.

What about the TGI [15] of the same compound?
Its TGI is greater than 100 µM.

What about the TGI [16] of the same compound?
Its TGI is greater than 100 µM.

And the TGI [17]?
Its TGI is greater than 100 µM.

What about the TGI [18] of the same compound?
Its TGI is greater than 100 µM.

And the TGI [19]?
Its TGI is greater than 100 µM.

And the TGI [20]?
The TGI was greater than 100 µM.

And the TGI [21]?
The TGI was greater than 100 µM.

What about the TGI [22] of the same compound?
Its TGI is greater than 100 µM.

And the TGI [23]?
Its TGI is greater than 100 µM.

What about the TGI [24] of the same compound?
The TGI was greater than 100 µM.

And the TGI [25]?
The TGI was greater than 100 µM.

What about the TGI [26] of the same compound?
The TGI was greater than 100 µM.

And the TGI [27]?
Its TGI is greater than 100 µM.

What about the TGI [28] of the same compound?
Its TGI is greater than 100 µM.

What about the TGI [29] of the same compound?
The TGI was greater than 100 µM.

What about the TGI [30] of the same compound?
Its TGI is greater than 100 µM.

What about the TGI [31] of the same compound?
The TGI was greater than 100 µM.

And the TGI [32]?
The TGI was greater than 100 µM.

And the TGI [33]?
Its TGI is greater than 100 µM.

And the TGI [34]?
Its TGI is greater than 100 µM.

What about the TGI [35] of the same compound?
Its TGI is greater than 100 µM.

And the TGI [36]?
The TGI was greater than 100 µM.

And the TGI [37]?
The TGI was greater than 100 µM.

And the TGI [38]?
Its TGI is greater than 100 µM.

And the TGI [39]?
Its TGI is greater than 100 µM.

And the TGI [40]?
The TGI was greater than 100 µM.

And the TGI [41]?
Its TGI is greater than 100 µM.

What about the TGI [42] of the same compound?
Its TGI is greater than 100 µM.

And the TGI [43]?
The TGI was greater than 100 µM.

And the TGI [44]?
The TGI was greater than 100 µM.

What about the TGI [45] of the same compound?
Its TGI is greater than 100 µM.

What about the TGI [46] of the same compound?
Its TGI is greater than 100 µM.

What about the TGI [47] of the same compound?
Its TGI is greater than 100 µM.

What does the source list for `CCCCn1c(CSc2ccc(Cl)cc2)c(C(=O)OCC)c2cc(OC)c(Br)cc21`?
TGI [1]: > 100 µM; TGI [3]: > 100 µM; TGI [4]: > 100 µM; TGI [48]: > 100 µM; TGI [5]: > 100 µM; TGI [6]: > 100 µM; TGI [7]: > 100 µM; TGI [8]: > 100 µM; TGI [49]: > 100 µM; TGI [9]: > 100 µM; TGI [50]: > 100 µM; TGI [10]: > 100 µM; TGI [11]: > 100 µM; TGI [12]: > 100 µM; TGI [13]: > 100 µM; TGI [14]: > 100 µM; TGI [51]: > 100 µM; TGI [15]: > 100 µM; TGI [16]: > 100 µM; TGI [52]: > 100 µM; TGI [17]: > 100 µM; TGI [18]: > 100 µM; TGI [19]: > 100 µM; TGI [20]: > 100 µM; TGI [21]: > 100 µM; TGI [22]: > 100 µM; TGI [23]: 75.9 µM; TGI [24]: > 100 µM; TGI [25]: > 100 µM; TGI [26]: > 100 µM; TGI [27]: > 100 µM; TGI [28]: > 100 µM; TGI [29]: > 100 µM; TGI [31]: > 100 µM; TGI [32]: > 100 µM; TGI [33]: > 100 µM; TGI [53]: > 100 µM; TGI [34]: > 100 µM; TGI [35]: > 100 µM; TGI [36]: > 100 µM; TGI [37]: > 100 µM; TGI [38]: > 100 µM; TGI [54]: > 100 µM; TGI [39]: > 100 µM; TGI [40]: > 100 µM; TGI [41]: > 100 µM; TGI [42]: > 100 µM; TGI [55]: > 100 µM; TGI [43]: > 100 µM; TGI [44]: > 100 µM; TGI [45]: > 100 µM; TGI [46]: > 100 µM; TGI [47]: > 100 µM; TGI [56]: > 100 µM
